# In US20090062273A1, “3-H-pyrazolopyridines and salts thereof, pharmaceutical compositions comprising same, methods of preparing same and uses of same” (priority 2006, published 2009):
# Biological target: Tie2 (Homo sapiens, UniProt Q02763)
# Test: Tie-2-Kinase HTRF-Assay without kinase preactivation
# Type: biochemical
# Design: fusion protein of GST and the intracellular domains of Tie-2; GST; made in house; host or cells: insect cells (Hi-5)
# Details: GST-Tie-2 intracellular domains, 10 μM ATP
# Excerpt: Tie2-inhibitory activity of compounds of the present invention was quantified employing two Tie2 HTRF assay as described in the following paragraphs.
# A recombinant fusion protein of GST and the intracellular domains of Tie-2, expressed in insect cells (Hi-5) and purified by Glutathion-Sepharose affinity chromatography was used as kinase. Alternatively, commercially available GST-Tie2-fusion protein (Upstate Biotechnology, Dundee, Scotland) can be used As substrate for the kinase reaction the biotinylated peptide biotin-Ahx-EPKDDAYPLYSDFG (C-terminus in amid form) was used which can be purchased e.g. from the company Biosynthan GmbH (Berlin-Buch, Germany). Detection of phosphorylated product is achieved specifically by a trimeric detection complex consisting of the phosphorylated substrate, streptavidin-XLent (SA-XLent) which binds to biotin, and Europium Cryptate-labeled anti-phosphotyrosine antibody PT66 which binds to phosphorylated tyrosine.
# Tie-2 (3.5 ng/measurement point) was incubated for 60 min at 22° C. in the presence of 10 μM adenosine-tri-phosphate (ATP) and 1 μM substrate peptide (biotin-Ahx-EPKDDAYPLYSDFG-NH2) with different concentrations of test compounds (0 μM and concentrations in the range 0.001-20 μM) in 5 μl assay buffer [50 mM Hepes/NaOH pH 7, 10 mM MgCl2, 0.5 mM MnCl2, 1.0 mM dithiothreitol, 0.01% NP40, protease inhibitor mixture (“Complete w/o EDTA” from Roche, 1 tablet per 2.5 ml), 1% (v/v) dimethylsulfoxide]. The reaction was stopped by the addition of 5 μl of an aqueous buffer (25 mM Hepes/NaOH pH 7.5, 0.28% (w/v) bovine serum albumin) containing EDTA (90 mM) and the HTRF (Homogeneous Time Resolved Fluorescence) detection reagents streptavidine-XLent (0.2 μM, from Cis Biointernational, Marcoule, France) and PT66-Eu-Chelate (0.3 ng/μl; a europium-chelate labelled anti-phospho-tyrosine antibody from Perkin Elmer).
# The resulting mixture was incubated 1 h at 22° C. to allow the binding of the biotinylated phosphorylated peptide to the streptavidine-XLent and the PT66-Eu-Chelate. Subsequently the amount of phosphorylated substrate peptide was evaluated by measurement of the resonance energy transfer from the PT66-Eu-Chelate to the streptavidine-XLent. Therefore, the fluorescence emissions at 620 nm and 665 nm after excitation at 350 nm was measured in a HTRF reader, e.g. a Rubystar (BMG Labtechnologies, Offenburg, Germany) or a Viewlux (Perkin-Elmer). The ratio of the emissions at 665 nm and at […] was taken as the measure for the amount of phosphorylated substrate peptide. The data were normalised (enzyme reaction without inhibitor=0% inhibition, all other assay components but no enzyme=100% inhibition) and IC50 values were calculated by a 4 parameter fit using an inhouse software.
# Sequence of Tie2 (Q02763 770-1124 limits assumed, species assumed): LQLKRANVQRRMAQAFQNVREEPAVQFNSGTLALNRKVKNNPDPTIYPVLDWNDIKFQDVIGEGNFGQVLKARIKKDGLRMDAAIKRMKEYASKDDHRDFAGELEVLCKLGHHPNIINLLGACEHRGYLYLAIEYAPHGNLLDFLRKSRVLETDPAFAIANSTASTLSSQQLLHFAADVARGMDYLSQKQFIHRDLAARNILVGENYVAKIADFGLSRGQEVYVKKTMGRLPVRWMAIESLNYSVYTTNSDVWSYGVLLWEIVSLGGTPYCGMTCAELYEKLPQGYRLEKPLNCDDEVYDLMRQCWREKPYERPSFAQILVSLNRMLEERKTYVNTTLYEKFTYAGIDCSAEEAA
row,SMILES,IC50 [µM]
1,"CCc1cccc(NC(=O)Nc2ccc(-c3cncc4c3cnn4C)cc2)c1 [Example 1.5, 1-(3-Ethyl-phenyl)-3-[4-(1-methyl-1H-pyrazolo[3,4-c]pyridin-4-yl)-phenyl]-urea]",< 0.501
2,"Cn1ncc2c(-c3ccc(NC(=O)Nc4cccc(C(F)(F)F)c4)cc3)cncc21 [Example 1.4, 1-[4-(1-Methyl-1H-pyrazolo[3,4-c]pyridin-4-yl)-phenyl]-3-(3-trifluoromethyl-phenyl)-urea]",< 0.501
3,"Cn1ncc2c(-c3ccc(NC(=O)Nc4cccc(C(F)(F)F)c4)c(F)c3)cncc21 [Example 3.1, 1-[2-Fluoro-4-(1-methyl-1H-pyrazolo[3,4-c]pyridin-4-yl)-phenyl]-3-(3-trifluoromethyl-phenyl)-urea]",< 0.501
4,"CN1CCN(Cc2ccc(NC(=O)Nc3ccc(-c4cncc5c4cnn5C)cc3F)cc2C(F)(F)F)CC1 [Example 13.6, 1-[2-Fluoro-4-(1-methyl-1H-pyrazolo[3,4-c]pyridin-4-yl)-phenyl]-3-[4-(4-methyl-piperazin-1-ylmethyl)-3-trifluoromethyl-phenyl]-urea]",< 0.501
5,"Cn1ncc2c(-c3ccc(NC(=O)Nc4cc(C(F)(F)F)ccc4F)cc3)cncc21 [Example 1.2, 1-(2-Fluoro-5-trifluoromethyl-phenyl)-3-[4-(1-methyl-1H-pyrazolo[3,4-c]pyridin-4-yl)-phenyl]-urea]",< 0.501
6,"Cn1ncc2c(-c3ccc(NC(=O)Nc4cc(C(F)(F)F)ccn4)cc3)cncc21 [Example 1.9, 1-[4-(1-Methyl-1H-pyrazolo[3,4-c]pyridin-4-yl)-phenyl]-3-(4-trifluoromethyl-pyridin-2-yl)-urea]",< 0.501
7,"Cn1ncc2c(-c3ccc(NC(=O)Nc4cc(C(C)(C)C)nn4-c4cncc(F)c4)cc3)cncc21 [Example 15.12, 1-[5-tert-Butyl-2-(5-fluoro-pyridin-3-yl)-2H-pyrazol-3-yl]-3-[4-(1-methyl-1H-pyrazolo[3,4-c]pyridin-4-yl)-phenyl]-urea]",< 0.501
8,"O=C(Nc1ccc(-c2cncc3c2cnn3CCO)cc1F)Nc1cc(C(F)(F)F)ccc1F [Example 8.1, 1-{2-Fluoro-4-[1-(2-hydroxy-ethyl)-1H-pyrazolo[3,4-c]pyridin-4-yl]-phenyl}-3-(2-fluoro-5-trifluoromethyl-phenyl)-urea]",< 0.501
9,"CN(C)CCN(C)c1ccc(C(F)(F)F)cc1NC(=O)Nc1ccc(-c2cncc3c2cnn3C)cc1 [Example 13.13, 1-{2-[(2-Dimethylamino-ethyl)-methyl-amino]-5-trifluoromethyl-phenyl}-3-[4-(1-methyl-1H-pyrazolo[3,4-c]pyridin-4-yl)-phenyl]-urea]",< 0.501
10,"O=C(Nc1ccc(-c2cncc3c2cnn3CCO)cc1)Nc1cc(C(F)(F)F)ccc1F [Example 8.2, 1-(2-Fluoro-5-trifluoromethyl-phenyl)-3-{4-[1-(2-hydroxy-ethyl)-1H-pyrazolo[3,4-c]pyridin-4-yl]-phenyl}-urea]",< 0.501
11,"Cn1ncc2c(-c3ccc(NC(=O)Nc4cc(C(F)(F)F)ccn4)c(F)c3)cncc21 [Example 14.5, 1-[2-Fluoro-4-(1-methyl-1H-pyrazolo[3,4-c]pyridin-4-yl)-phenyl]-3-(4-trifluoromethyl-pyridin-2-yl)-urea]",< 0.501
12,"CCn1ncc2c(-c3ccc(NC(=O)Nc4cc(C(F)(F)F)ccc4F)c(F)c3)cncc21 [Example 11.2, 1-[4-(1-Ethyl-1H-pyrazolo[3,4-c]pyridin-4-yl)-2-fluoro-phenyl]-3-(2-fluoro-5-trifluoromethyl-phenyl)-urea]",< 0.501
13,"COCCn1ncc2c(-c3ccc(NC(=O)Nc4cccc(C(F)(F)F)c4)c(F)c3)cncc21 [Example 12.4, 1-{2-Fluoro-4-[1-(2-methoxy-ethyl)-1H-pyrazolo[3,4-c]pyridin-4-yl]-phenyl}-3-(3-trifluoromethyl-phenyl)-urea]",< 0.501
14,"CC(C)c1cc(NC(=O)Nc2ccc(-c3cncc4c3cnn4C)cc2F)n(-c2cccc(F)c2)n1 [Example 15.2, 1-[2-Fluoro-4-(1-methyl-1H-pyrazolo[3,4-c]pyridin-4-yl)-phenyl]-3-[2-(3-fluoro-phenyl)-5-isopropyl-2H-pyrazol-3-yl]-urea]",< 0.501
15,"Cn1ncc2c(-c3ccc(NC(=O)Nc4cc(C(C)(C)C)nn4-c4ccccc4)cc3)cncc21 [Example 13.4, 1-(5-tert-Butyl-2-phenyl-2H-pyrazol-3-yl)-13-[4-(1-methyl-1H-pyrazolo[3,4-c]pyridin-4-yl)-phenyl]-urea]",< 0.501
16,"Cc1cc(-c2cncc3c2cnn3C)ccc1NC(=O)Nc1cccc(C(F)(F)F)c1 [Example 4.1, 1-[2-Methyl-4-(1-methyl-1H-pyrazolo[3,4-c]pyridin-4-yl)-phenyl]-3-(3-trifluoromethyl-phenyl)-urea]",< 0.501
17,"Cn1ncc2c(-c3ccc(NC(=O)Nc4cc(C(F)(F)F)ccc4Cl)cc3)cncc21 [Example 1.13, 1-(2-Chloro-5-trifluoromethyl-phenyl)-3-[4-(1-methyl-1H-pyrazolo[3,4-c]pyridin-4-yl)-phenyl]-urea]",< 0.501
18,"COc1cccc(-n2nc(C(C)(C)C)cc2NC(=O)Nc2ccc(-c3cncc4c3cnn4C)cc2)c1 [Example 15.5, 1-[5-tert-Butyl-2-(3-methoxy-phenyl)-2H-pyrazol-3-yl]-3-[4-(1-methyl-1H-pyrazolo[3,4-c]pyridin-4-yl)-phenyl]-urea]",< 0.501
19,"Cn1ncc2c(-c3ccc(NC(=O)Nc4cc(C(C)(C)C)nn4-c4cncc(F)c4)c(F)c3)cncc21 [Example 15.13, 1-[5-tert-Butyl-2-(5-fluoro-pyridin-3-yl)-2H-pyrazol-3-yl]-3-[2-fluoro-4-(1-methyl-1H-pyrazolo[3,4-c]pyridin-4-yl)-phenyl]-urea]",< 0.501
20,"CN1CCN(Cc2ccc(NC(=O)Nc3ccc(-c4cncc5c4cnn5CCO)cc3)cc2C(F)(F)F)CC1 [Example 8.6, 1-{4-[1-(2-Hydroxy-ethyl)-1H-pyrazolo[3,4-c]pyridin-4-yl]-phenyl}-3-[4-(4-methyl-piperazin-1-ylmethyl)-3-trifluoromethyl-phenyl]-urea]",< 0.501
21,"CN(C)C1CCN(c2ccc(C(F)(F)F)cc2NC(=O)Nc2ccc(-c3cncc4c3cnn4C)cc2)C1 (stereo not drawn) [Example 13.12, 1-[2-(3-Dimethylamino-pyrrolidin-1-yl)-5-trifluoromethyl-phenyl]-3-[4-(1-methyl-1H-pyrazolo[3,4-c]pyridin-4-yl)-phenyl]-urea]",< 0.501
22,"Cc1ccc(F)c(NC(=O)Nc2ccc(-c3cncc4c3cnn4C)cc2)c1 [Example 1.3, 1-(2-Fluoro-5-methyl-phenyl)-3-[4-(1-methyl-1H-pyrazolo[3,4-c]pyridin-4-yl)-phenyl]-urea]",< 0.501
23,"Cn1ncc2c(-c3ccc(NC(=O)Nc4cc(C(C)(C)C)nn4-c4ccncc4)cc3)cncc21 [Example 15.10, 1-(5-tert-Butyl-2-pyridin-4-yl-2H-pyrazol-3-yl)-3-[4-(1-methyl-1H-pyrazolo[3,4-c]pyridin-4-yl)-phenyl]-urea]",< 0.501
24,"CN(C(=O)Nc1cccc(C(F)(F)F)c1)c1ccc(-c2cncc3c2cnn3C)cc1 [Example 6.1, 1-Methyl-1-[4-(1-methyl-1H-pyrazolo[3,4-c]pyridin-4-yl)-phenyl]-3-(3-trifluoromethyl-phenyl)-urea]",0.501 to 1
25,"COCCn1ncc2c(-c3ccc(NC(=O)Nc4cc(C)ccc4F)cc3)cncc21 [Example 12.3, 1-(2-Fluoro-5-methyl-phenyl)-3-{4-[1-(2-methoxy-ethyl)-1H-pyrazolo[3,4-c]pyridin-4-yl]-phenyl}-urea]",< 0.501
26,"COCCn1ncc2c(-c3ccc(NC(=O)Nc4cc(C(F)(F)F)ccc4F)c(F)c3)cncc21 [Example 12.5, 1-{2-Fluoro-4-[1-(2-methoxy-ethyl)-1H-pyrazolo[3,4-c]pyridin-4-yl]-phenyl}-3-(2-fluoro-5-trifluoromethyl-phenyl)-urea]",< 0.501
27,"CCn1ncc2c(-c3ccc(NC(=O)Nc4cc(C)ccc4F)c(F)c3)cncc21 [Example 11.3, 1-[4-(1-Ethyl-1H-pyrazolo[3,4-c]pyridin-4-yl)-2-fluoro-phenyl]-3-(2-fluoro-5-methyl-phenyl)-urea]",< 0.501
